Results: patent US8802895B2, “Amide derivatives of benzene-sulfonanilide, pharmaceutical composition thereof and method for cancer treatment using the same” (Cleveland State University, priority 2010, dated 2014)

Experiments:
Format in all cases: cell-based
SK-MEL-2 = assay: NCIDTP 60 cancer cell lines screening, Melanoma panel; details: SK-MEL-2
UACC-257 = assay: as above
IGROV1 = assay: NCIDTP 60 cancer cell lines screening, Ovarian Cancer panel
OVCAR-4 = assay: as above
SK-OV-3 = assay: as above
ACHN = assay: NCIDTP 60 cancer cell lines screening, Renal Cancer panel
TK-10 = assay: as above
PC-3 = assay: NCIDTP 60 cancer cell lines screening, Prostate Cancer panel
MDA-MB-468 = assay: NCIDTP 60 cancer cell lines screening, Breast Cancer panel
cells = assay: Primary mechanism study: cell viability with compound #10 and 2-APB (FIG. 10); details: with and without 2-APB; cell viability after 48 hours
Protocol: For the experiment, 2-APB was first added. […] The control cells were treated with same amount of DMSO to carry the drugs. The cell viability was evaluated after 48 hours.

Cc1ccc(C)c(COc2cc(NC(=O)c3ccc4c(c3)OCO4)ccc2N(C)S(C)(=O)=O)c1 [Compound #10, Benzo[1,3]dioxole-5-carboxylic acid [3-(2,5-dimethyl-benzyloxy)-4-(methanesulfonyl-methyl-amino)-phenyl]-amide] was tested, and the “Percent Growth” value (SK-MEL-2; Log10 Concentration −6.0 Molar) was −13%, the “Percent Growth” value (SK-MEL-2; Log10 Concentration −7.0 Molar) was 48% and the “Percent Growth” value (SK-MEL-2; Log10 Concentration −8.0 Molar) was 99%. For the same molecule, the GI50 (UACC-257; Homo sapiens, UACC-257) was 144 nM, the CC50 (UACC-257; Homo sapiens, UACC-257, read-out: LC50) was greater than 100000 nM and the TGI (UACC-257; UACC-257) was greater than 1.00E−4 Molar. For the same molecule, the “Percent Growth” value (UACC-257; UACC-257, Log10 Concentration −4.0 Molar) was 13%, the “Percent Growth” value (UACC-257; UACC-257, Log10 Concentration −5.0 Molar) was 29% and the “Percent Growth” value (UACC-257; UACC-257, Log10 Concentration −6.0 Molar) was 32%. The “Percent Growth” value (UACC-257; UACC-257, Log10 Concentration −7.0 Molar) was 53%, the “Percent Growth” value (UACC-257; UACC-257, Log10 Concentration −8.0 Molar) was 88% and the CC50 (IGROV1; Homo sapiens, IGROV-1, read-out: LC50) was greater than 100000 nM. For the same molecule, the GI50 (IGROV1; Homo sapiens, IGROV-1, IGROV1) was 237 nM, the TGI (IGROV1; IGROV1) was greater than 1.00E−4 Molar and the “Percent Growth” value (IGROV1; IGROV1, Log10 Concentration −4.0 Molar) was 13%. The “Percent Growth” value (IGROV1; IGROV1, Log10 Concentration −5.0 Molar) was 13%, the “Percent Growth” value (IGROV1; IGROV1, Log10 Concentration −6.0 Molar) was 18% and the “Percent Growth” value (IGROV1; IGROV1, Log10 Concentration −7.0 Molar) was 69%. For the same molecule, the “Percent Growth” value (IGROV1; IGROV1, Log10 Concentration −8.0 Molar) was 92%, the CC50 (OVCAR-4; Homo sapiens, OVCAR-4, read-out: LC50) was greater than 100000 nM and the TGI (OVCAR-4; OVCAR-4) was greater than 1.00E−4 Molar. For the same molecule, the “Percent Growth” value (OVCAR-4; OVCAR-4, Log10 Concentration −4.0 Molar) was 56%, the “Percent Growth” value (OVCAR-4; OVCAR-4, Log10 Concentration −5.0 Molar) was 47% and the “Percent Growth” value (OVCAR-4; OVCAR-4, Log10 Concentration −6.0 Molar) was 54%. For the same molecule, the “Percent Growth” value (OVCAR-4; OVCAR-4, Log10 Concentration −7.0 Molar) was 90%, the “Percent Growth” value (OVCAR-4; OVCAR-4, Log10 Concentration −8.0 Molar) was 87% and the GI50 (SK-OV-3; Homo sapiens, SK-OV-3) was 285 nM. For the same molecule, the CC50 (SK-OV-3; Homo sapiens, SK-OV-3, read-out: LC50) was greater than 100000 nM, the TGI (SK-OV-3; SK-OV-3) was greater than 1.00E−4 Molar and the “Percent Growth” value (SK-OV-3; SK-OV-3, Log10 Concentration −4.0 Molar) was 5%. The “Percent Growth” value (SK-OV-3; SK-OV-3, Log10 Concentration −5.0 Molar) was 5%, the “Percent Growth” value (SK-OV-3; SK-OV-3, Log10 Concentration −6.0 Molar) was 8% and the “Percent Growth” value (SK-OV-3; SK-OV-3, Log10 Concentration −7.0 Molar) was 85%. For the same molecule, the “Percent Growth” value (SK-OV-3; SK-OV-3, Log10 Concentration −8.0 Molar) was 99%, the TGI (ACHN) was greater than 1.00E−4 Molar and the GI50 (ACHN; Homo sapiens) was 687 nM. The CC50 (ACHN; Homo sapiens, read-out: LC50) was greater than 100000 nM, the “Percent Growth” value (ACHN; Log10 Concentration −4.0 Molar) was 23% and the “Percent Growth” value (ACHN; Log10 Concentration −5.0 Molar) was 26%. The “Percent Growth” value (ACHN; Log10 Concentration −6.0 Molar) was 45%, the “Percent Growth” value (ACHN; Log10 Concentration −7.0 Molar) was 75% and the “Percent Growth” value (ACHN; Log10 Concentration −8.0 Molar) was 95%. It also gave a GI50 (TK-10; Homo sapiens, TK-10) of 354 nM, a CC50 (TK-10; Homo sapiens, TK-10, read-out: LC50) greater than 100000 nM and a TGI (TK-10; TK-10) greater than 1.00E−4 Molar. The “Percent Growth” value (TK-10; TK-10, Log10 Concentration −4.0 Molar) was 9%, the “Percent Growth” value (TK-10; TK-10, Log10 Concentration −5.0 Molar) was 6% and the “Percent Growth” value (TK-10; TK-10, Log10 Concentration −6.0 Molar) was 18%. The “Percent Growth” value (TK-10; TK-10, Log10 Concentration −7.0 Molar) was 88%, the “Percent Growth” value (TK-10; TK-10, Log10 Concentration −8.0 Molar) was 92% and the GI50 (PC-3; Homo sapiens, PC-3) was 67.7 nM. The CC50 (PC-3; Homo sapiens, PC-3, read-out: LC50) was greater than 100000 nM, the TGI (PC-3; PC-3) was greater than 1.00E−4 Molar and the “Percent Growth” value (PC-3; PC-3, Log10 Concentration −4.0 Molar) was 21%. For the same molecule, the “Percent Growth” value (PC-3; PC-3, Log10 Concentration −5.0 Molar) was 20%, the “Percent Growth” value (PC-3; PC-3, Log10 Concentration −6.0 Molar) was 21% and the “Percent Growth” value (PC-3; PC-3, Log10 Concentration −7.0 Molar) was 41%. The “Percent Growth” value (PC-3; PC-3, Log10 Concentration −8.0 Molar) was 92%, the GI50 (MDA-MB-468; Homo sapiens, MDA-MB-468) was 155 nM and the CC50 (MDA-MB-468; Homo sapiens, MDA-MB-468, read-out: LC50) was 19900 nM. The TGI (MDA-MB-468; MDA-MB-468) was 4.01E−7 Molar, the “Percent Growth” value (MDA-MB-468; MDA-MB-468, Log10 Concentration −4.0 Molar) was −56% and the “Percent Growth” value (MDA-MB-468; MDA-MB-468, Log10 Concentration −5.0 Molar) was −47%. For the same molecule, the “Percent Growth” value (MDA-MB-468; MDA-MB-468, Log10 Concentration −6.0 Molar) was −48%, the “Percent Growth” value (MDA-MB-468; MDA-MB-468, Log10 Concentration −7.0 Molar) was 73% and the “Percent Growth” value (MDA-MB-468; MDA-MB-468, Log10 Concentration −8.0 Molar) was 85%. The “cell death / cell viability, relation with calcium signal” value (cells) was “induces cell death that is at least partially related with calcium signal in the cells”.
